Our source for the IC50 values is article PMC6547740, “Potent and specific MTH1 inhibitors targeting gastric cancer” (Cell Death & Disease, 2019).

What all share (type): cell-based
The subject of one assay is HL-7702 cells. As to the kind of experiment: MTT cell viability, HL-7702. As to conditions: Homo sapiens, L02, normal liver cell line, 72 h. The protocol: (§1) The cell viability was determined by 3-(4,5-dimethylthiazol-2-yl)-2,5-diphenyltetrazolium bromide (MTT) assay, according to the manufacturer’s instructions. 1 day before treatment, cells were seeded into 96-well plates at a concentration of 2–5 × 10^3 cells per well, followed by treatment with fresh medium containing serial dilutions of candidate compounds for 48 or 72 h, 20 μL of MTT solution (5 mg/mL in PBS) was then added to each well. After treatment, the plates were incubated at 37 °C for another 4 h. Subsequently, the MTT solution was removed and 150 μL of DMSO was added to each well for 10 min, and then the plates were shaken to dissolve the dark blue crystal (formazan), the absorbance was detected at 570 nm using a BioTek microplate reader. The data were analyzed using SPSS 20 software.

Another assay deals with pc9 cells. Kind of assay: MTT cell viability, pc9. As to conditions: Homo sapiens, PC-9, 72 h. The protocol: as §1
The next assay deals with SMMC-7721 cells. As to the kind of experiment: MTT cell viability, SMMC-7721. As to conditions: Homo sapiens, liver cancer cell line, 72 h. The protocol: as §1
The subject of the next assay is KYSE-450 cells. Kind of assay: MTT cell viability, KYSE-450. As to conditions: Homo sapiens, esophageal cancer cell line, 72 h. The protocol: as §1

In general, IC50 refers to the midpoint of a concentration-inhibition curve. Higher therefore signals a need for much substance. Regarding `C#CCSc1nc(NNC(N)=S)c(C#N)c(-c2ccc3oc(=O)ccc3c2)n1` [MI-743, 2-(5-cyano-6-(2-oxo-2H-chromen-6-yl)-2-(prop-2-yn-1-ylthio)pyrimidin-4-yl)hydrazine-1-carbothioamide], the IC50 in the assay with HL-7702 cells turned out to be 20.1 ± 1.76 µM; with pc9 cells it was 9.53 ± 0.98 µM; with SMMC-7721 cells, 5.39 ± 0.73 µM; in the assay on KYSE-450 cells, 6.69 ± 0.82 µM.
